Measurements reported in US11331272B2, “Hyperstabilized liposomes increase targeting of mitotic cells” (TEMASEK LIFE SCIENCES LABORATORY LIMITED, priority 2017, dated 2022).

Assays:
[1] = Toxicity / body weight in HCT116 xenografted mice; details: NCr Nude, mouse, in vivo, intravenous, tail vein injection, read-out: maximum tolerated dose
Method: (§1) Free BI 2536 (dissolved in 0.1 N HCl, saline) or the indicated liposomal BI 2536 formulations were administered by slow tail vein injection 7 days post grafting with HCT116. Tumor volumes were at least 150 mm^3 and calculated using length×width^2×0.5. All measurements were performed using vernier calipers and mice were weighed every other day. Mice were subcutaneously hydrated with 1 ml Hartmann's solution daily for 5 days post treatment to ensure that the mice were fully hydrated.

HCT116 xenografts = assay: Efficacy study in HCT116 xenografted mice (tumor volume, complete responses, survival); type: in vivo, NCr Nude mice; details: free 100 mg/kg, responders/treated mice
Method: All animal experiments were approved by the Institutional Animal Care and Use Committee of Temasek Life Sciences Laboratory and National University of Singapore (NUS). Female NCr Nude mice (Ages 5-8 weeks) were purchased from (Singapore/InVivos) and subcutaneously xenografted with HCT116 cells. HCT116 cells were grown as described above in 600 cm^2 dishes (Corning) and each dish was used to graft 5 mice when confluence reached ˜80%.
as §1

[2] = Hexanol extraction of BI 2536 from salt solutions; type: physicochemical; details: pH 3
Method: BI 2536 was first dissolved in ethanol and then coated onto 1.5 ml microfuge tubes by spin drying. BI 2636-coated tubes were then further dried overnight under high vacuum before resuspending in the indicated salt solutions to achieve a final concentration of 500 μM. To ensure complete dissolution of coated BI2536, tubes were briefly vortexed and subjected to bath sonication for 1 minute before being used for characterization.
BI 2536 from 1 ml of the indicated buffer was extracted with 100 μl 1-hexanol (Merck) by brief shaking for 1 hour. Hexanol and buffer layers were separated by brief centrifugation and 20 ul of the hexanol layer was analyzed for fluorescence intensity using the Tecan plate reader (Ex: 330 nm, Em: 370 nm).

CC[C@@H]1C(=O)N(C)c2cnc(Nc3ccc(C(=O)NC4CCN(C)CC4)cc3OC)nc2N1C1CCCC1 [Free Drug, BI 2536]
MTD [1]: 100 mg/kg
Complete Responses, Double Dose (HCT116 xenografts; doses at days 0 and 7, liposomal 340 mg/kg): 0/8
Complete Responses, Single Dose (HCT116 xenografts; single dose at day 0, liposomal 340 mg/kg): 0/10
hexanol-extraction efficiency as anion concentration rises ([2]; anions M, C, H): decreased
hexanol-extraction efficiency as anion concentration rises ([2]; anions P, A): increased
